According to the supplement of paper PMC11208160:

Assay: recombinant barcode read abundance after kanamycin selection (control-corrected) (log10(CPM+1)); higher = more efficient recombination; sequences stand for … in AGTGCAGAGAAAATCGGCCAGTTTTCTCTGCCTGCAGTCCGCATGCCGT…AGATTTATGCAGCGGACTGCCTTTCTCCCAAAGTGATAAACCGGACAGTATCATGGACCGGTTTTCCCGGTAATCCGTATTTGCAAGGTTGGTTTCACT; site = the 11-nt target
Procedure, shortened: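 Duplicate cultures were plated either on chloramphenicol/ampicillin LB agar, serving as control, or on chloramphenicol/ampicillin/kanamycin with 0.1 mM IPTG. These came from a pooled E. coli library co-electroporated with a donor plasmid, each member pairing a target with an IS621 bridge RNA target-binding loop. Recombination efficiency equals averaged, control-corrected counts per million of recombinant-junction barcodes. It is listed as log10(CPM+1).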
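Note: IS621 recombinase and bridge RNA in Escherichia coli cells.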

Row | Sequence | recombinant barcode read abundance (log10)
1 | TAGTACGCTTGGGTTCTAACCTGTTGCTT (site TAGTACGCTAA) | 0.848
2 | TAGTACTCTTGGGTTCTAACCTGTTGCTG (site TAGTACTCTAA) | 0.244
3 | TAGTACTCTTGGGTTCTAACCTGTTGCTG (site TAGTACTCTCA) | 1.06
4 | TAGTACTCTTGGGTTCTAACCTGTTGCTG (site TAGTACTCTGA) | 0.053
5 | TAGTACTCTTGGGTTCTAACCTGTTGCTG (site TAGTACTCTTA) | 0.0609
6 | TAGTAGTCTTGGGTTCTAACCTGTTGCAT (site TAGTAGTCTAA) | 0.503
7 | TAGTAGTCTTGGGTTCTAACCTGTTGCAT (site TAGTAGTCTAC) | 1.14
8 | TAGTAGTCTTGGGTTCTAACCTGTTGCAT (site TAGTAGTCTAG) | 0.596
9 | TAGTAGTCTTGGGTTCTAACCTGTTGCAT (site TAGTAGTCTAT) | 2.12
10 | TAGTAGTCTTGGGTTCTAACCTGTTGCTT (site TAGTAGTCTAA) | 1.55
11 | TAGTAGTCTTGGGTTCTAACCTGTTGCTT (site TAGTAGTCTAC) | 0.635
12 | TAGTAGTCTTGGGTTCTAACCTGTTGCTT (site TAGTAGTCTAG) | 0.659
13 | TAGTAGTCTTGGGTTCTAACCTGTTGCTT (site TAGTAGTCTAT) | 1.15
14 | TAGTGATCTTGGGTTCTAACCTGTTGCCT (site TAATGATCTAG) | 0
15 | TAGTGATCTTGGGTTCTAACCTGTTGCCT (site TACTGATCTAG) | 0.072
16 | TAGTGATCTTGGGTTCTAACCTGTTGCCT (site TAGTGATCTAG) | 0.783
17 | TAGTGATCTTGGGTTCTAACCTGTTGCCT (site TATTGATCTAG) | 0.0361
18 | TAGTGGCCTTGGGTTCTAACCTGTTGCTA (site CCTGACTCTAT) | 0
19 | TAGTGGCCTTGGGTTCTAACCTGTTGCTA (site TAGTGGCCTTA) | 0.132
20 | TAGTGGTCTTGGGTTCTAACCTGTTGCTA (site TAGTGGTCTAT) | 0.403
21 | TAGTGGTCTTGGGTTCTAACCTGTTGCTA (site TAGTGGTCTTA) | 1.01
22 | TAGTTTCCTTGGGTTCTAACCTGTTGCGT (site TAGTATCCTAC) | 0.3

Row | Sequence | recombinant barcode read abundance (log10)
23 | TAGTTTCCTTGGGTTCTAACCTGTTGCGT (site TAGTCTCCTAC) | 0.0219
24 | TAGTTTCCTTGGGTTCTAACCTGTTGCGT (site TAGTGTCCTAC) | 0.206
25 | TAGTTTCCTTGGGTTCTAACCTGTTGCGT (site TAGTTTCCTAC) | 0.875
26 | TAGTTTGCTTGGGTTCTAACCTGTTGCGA (site CGTCGGACTCT) | 0.00829
27 | TAGTTTGCTTGGGTTCTAACCTGTTGCGA (site TAGTTTGCTTC) | 0.171
28 | TATAATTCTTGGGTTCTAACCTGTTGCTT (site TATAATTCTAA) | 0.164
29 | TATAATTCTTGGGTTCTAACCTGTTGCTT (site TTCAATTCTAA) | 0.146
30 | TATACAACTTGGGTTCTAACCTGTTGCCT (site TATAAAACTAG) | 0.089
31 | TATACAACTTGGGTTCTAACCTGTTGCCT (site TATACAACTAG) | 0.112
32 | TATACAACTTGGGTTCTAACCTGTTGCCT (site TATAGAACTAG) | 0.0301
33 | TATACAACTTGGGTTCTAACCTGTTGCCT (site TATATAACTAG) | 0.0752
34 | TATACAGCTTGGGTTCTAACCTGTTGCCT (site TAAACAGCTAG) | 0.156
35 | TATACAGCTTGGGTTCTAACCTGTTGCCT (site TACACAGCTAG) | 0.192
36 | TATACAGCTTGGGTTCTAACCTGTTGCCT (site TAGACAGCTAG) | 0.0546
37 | TATACAGCTTGGGTTCTAACCTGTTGCCT (site TATACAGCTAG) | 0.592
38 | TATACTACTTGGGTTCTAACCTGTTGCCT (site TATACTACTAG) | 0.0122
39 | TATACTACTTGGGTTCTAACCTGTTGCCT (site TATACTGCTAG) | 0.0258
40 | TATACTACTTGGGTTCTAACCTGTTGCTT (site CACACTACTAA) | 0.0534
41 | TATACTACTTGGGTTCTAACCTGTTGCTT (site TATACTACTAA) | 0.0375
42 | TATAGGACTTGGGTTCTAACCTGTTGCGT (site GATAGGACTAC) | 0.0102
43 | TATAGGACTTGGGTTCTAACCTGTTGCGT (site TATAGGACTAC) | 2.03
44 | TATAGTACTTGGGTTCTAACCTGTTGCCT (site TATAGTACTAG) | 0.152

Row | Sequence | recombinant barcode read abundance (log10)
45 | TATAGTACTTGGGTTCTAACCTGTTGCCT (site TATTGTCCTAG) | 0.0337
46 | TATCCATCTTGGGTTCTAACCTGTTGCCT (site TAACCATCTAG) | 0.0695
47 | TATCCATCTTGGGTTCTAACCTGTTGCCT (site TACCCATCTAG) | 0.0382
48 | TATCCATCTTGGGTTCTAACCTGTTGCCT (site TAGCCATCTAG) | 0.0545
49 | TATCCATCTTGGGTTCTAACCTGTTGCCT (site TATCCATCTAG) | 0.618
50 | TATGAGGCTTGGGTTCTAACCTGTTGCCT (site TATGAGGCTAG) | 0.433
51 | TATGAGGCTTGGGTTCTAACCTGTTGCCT (site TATGCGGCTAG) | 0.26
52 | TATGAGGCTTGGGTTCTAACCTGTTGCCT (site TATGGGGCTAG) | 0.0447
53 | TATGAGGCTTGGGTTCTAACCTGTTGCCT (site TATGTGGCTAG) | 0.162
54 | TATGGAGCTTGGGTTCTAACCTGTTGCAG (site GTTGGAGCTCT) | 1.14
55 | TATGGAGCTTGGGTTCTAACCTGTTGCAG (site TATGGAGCTCT) | 2.34
56 | TATGTAGCTTGGGTTCTAACCTGTTGCCC (site TATGTAGCTAG) | 0.226
57 | TATGTAGCTTGGGTTCTAACCTGTTGCCC (site TATGTAGCTCG) | 0.0813
58 | TATGTAGCTTGGGTTCTAACCTGTTGCCC (site TATGTAGCTGG) | 1.36
59 | TATGTAGCTTGGGTTCTAACCTGTTGCCC (site TATGTAGCTTG) | 0.239
60 | TATTATACTTGGGTTCTAACCTGTTGCAT (site TATTATACTAA) | 0.0319
61 | TATTATACTTGGGTTCTAACCTGTTGCAT (site TATTATACTAC) | 0.0379
62 | TATTATACTTGGGTTCTAACCTGTTGCAT (site TATTATACTAG) | 0.0602
63 | TATTATACTTGGGTTCTAACCTGTTGCAT (site TATTATACTAT) | 0.167
64 | TATTATACTTGGGTTCTAACCTGTTGCGT (site TATTATACTAA) | 0.116
65 | TATTATACTTGGGTTCTAACCTGTTGCGT (site TATTATACTAC) | 0.335
66 | TATTATACTTGGGTTCTAACCTGTTGCGT (site TATTATACTAG) | 0.0727

Row | Sequence | recombinant barcode read abundance (log10)
67 | TATTATACTTGGGTTCTAACCTGTTGCGT (site TATTATACTAT) | 0.16
68 | TATTATACTTGGGTTCTAACCTGTTGCTT (site TATTATACTAA) | 0.0915
69 | TATTATACTTGGGTTCTAACCTGTTGCTT (site TATTATACTAC) | 0.116
70 | TATTATACTTGGGTTCTAACCTGTTGCTT (site TATTATACTAG) | 0.245
71 | TATTATACTTGGGTTCTAACCTGTTGCTT (site TATTATACTAT) | 0.34
72 | TATTCTACTTGGGTTCTAACCTGTTGCGC (site TATTCTACTAC) | 0.0305
73 | TATTCTACTTGGGTTCTAACCTGTTGCGC (site TATTCTACTCC) | 0.0687
74 | TATTCTACTTGGGTTCTAACCTGTTGCGC (site TATTCTACTGC) | 0.0329
75 | TATTCTACTTGGGTTCTAACCTGTTGCGC (site TATTCTACTTC) | 0.0215
76 | TATTGATCTTGGGTTCTAACCTGTTGCCT (site TAATGATCTAG) | 0.347
77 | TATTGATCTTGGGTTCTAACCTGTTGCCT (site TACTGATCTAG) | 0.162
78 | TATTGATCTTGGGTTCTAACCTGTTGCCT (site TAGTGATCTAG) | 0.0784
79 | TATTGATCTTGGGTTCTAACCTGTTGCCT (site TATTGATCTAG) | 0.235
80 | TATTGCCCTTGGGTTCTAACCTGTTGCCT (site TAATGCCCTAG) | 0.203
81 | TATTGCCCTTGGGTTCTAACCTGTTGCCT (site TATTGCCCTAG) | 0.117
82 | TCAAACCCTTGGGTTCTAACCTGTTGCGG (site TCAAACCCTCC) | 1.6
83 | TCAAACCCTTGGGTTCTAACCTGTTGCGG (site TCCAACCCTCC) | 0.292
84 | TCAAACCCTTGGGTTCTAACCTGTTGCGG (site TCGAACCCTCC) | 0.0489
85 | TCAAACCCTTGGGTTCTAACCTGTTGCGG (site TCTAACCCTCC) | 0.279
86 | TCAAGACCTTGGGTTCTAACCTGTTGCCG (site TCAAGACCTAG) | 0.179
